This is an account of results in patent US7935726B1, “Tricyclic pyrones” (Kansas State University Research Foundation, priority 1999, dated 2011).

Where two headings read alike, the source gives them in different places.

The test system of data set [1] is bovine lens epithelial cells. As to the kind of experiment: toxicity in bovine lens epithelial cells. In kind it is cell-based. Particulars: up to 100 uM added to bovine lens epithelial cells.
Data set [2] concerns the target T1, Human aldose reductase (AR) (Homo sapiens, UniProt P15121).
T1 construct: made in house; host or cells: E. coli
In words: human AR inhibition assay (enzyme assay, NADPH absorption at 340 nm). In kind it is biochemical. To be noted: Table 3; average of three assays; read-out: IC50, Inhibition of Human Retina Aldose Reductase. As for the experimental part: Human aldose reductase (AR) was obtained from overexpression of the human AR gene in an E coli system and was purified by column chromatography using a talon metal affinity column and eluted with a gradient mixture of Tris, NaCl buffer and imidazole solution. The human AR inhibition assay was conducted as follows. In a sample cuvette, 25 mM of D-xylose (75 mg/mL) and 0.15 mM of reduced nicotinamide adenine dinucleotide phosphate (NADPH) (4 mg/mL), and various amount of the inhibitor [in PBS (phosphate buffer saline) solution; the concentration of the inhibitor was determined using UV spectroscopy based on εmax at λmax of the drug] in 700 uL of PBS (a solution made of 1.44 g of Na2HPO4, 0.24 g KH2PO4, 0.2 g KCl, and 8 g NaCl in 1 L of distilled water) buffer (pH=6.1) solution and 200 uL of the AR enzyme (a final volume of 1 mL was obtained). The intensity of absorption of NADPH (λmax=340 nm) was measured. When xylose is reduced to xylitol, NADPH is converted into NADP and the absorption at 340 nm decreases. When AR is inhibited by the drug, the absorption at 340 nm of NADPH remains unchanged. Each assay was repeated three times and an average IC50 value was obtained.

Data set [3] has as its system N/N 1003 lens epithelial cells. As to the kind of experiment: tissue culture assay: galactitol formation from galactose in lens epithelial cells (GC/MS). In kind it is cell-based. To be noted: for inhibition at 10 µM / IC50: Epithelial cell; for inhibition at 10 µM: 10 uM inhibitor, 40 mM galactose media, lens epithelial cells, number of trials in parenthesis. As for the experimental part: The activity of the drugs is tested in various ways, including tissue culture assays and assays testing aldose reductase inhibition. For the tissue culture assay, a lens epithelial cell line is grown in galactose with or without the drug. Cells are tested for polyol accumulation by GC/mass spectrometry. Levels of PKC are tested in homogenized cell pellets or in samples of lens, retina or sciatic nerves from treated patients. Tissue is homogenized and tested for PKCγ levels using Western blots. These procedures are described in more detail below.
The ability of the drugs to inhibit galactitol formation from galactose was also studied in N/N 1003 lens epithelial cells. Two sets of lens cells were grown in media with […] 40 mM galactose. Various concentrations of inhibitors were added initially and the cells were grown for 48 hours. The cells were lysed and galactose and galactitol were extracted out and the concentrations were determined using gas chromatography and mass spectrometry by silylating the crude extract with excess of trimethylsilyl chloride, trimethylsilyl imidazole and pyridine at 70° C. for 1 h.
40 mM galactose media was supplemented with 10 uM inhibitor and fed to lens epithelial cells for 48 hours.

Data set [4] is described as follows: water solubility.
Data set [5] has as its system MC65 cells. In words: protection from APP C99-induced cell death in MC65 cells. In kind it is cell-based. From the text: The reported procedures for the inhibitory activities of ACAT (Tomoda, H.; Nishida, H.; Masuma, R.; Cao, J.; Okuda, S.; Omura, S. J. Antibiot. 1991, 44, 136-143), CETP (Tomoda, H.; Tabata, N.; Masuma, R.; Si, S.-Y.; Omura, S. J. Antibiot. 1998, 51, 618-623; D. H. Hua et al. Tetrahedron 2003, 59, 4795-4803), L1210 tumor cells (Perchellet, E. M.; Ladesich, J. B.; Magill, M. J.; Chen, Y.; Hua, D. H.; Perchellet, J. P. Anti-Cancer Drugs 1999, 10, 489-504), and APP C99-induced cell death (Jin, L.-W.; Hua, D. H.; Shie, F.-S.; Maezawa, I.; Sopher, B.; Martin, G. M. J. Mol. Neurosci. 2002, 19, 57-61) were followed. […]

The test system of data set [6] is L1210 tumor cells. As to the kind of experiment: cytotoxicity to L1210 tumor cells. In kind it is cell-based. From the text: The reported procedures for the inhibitory activities of ACAT (Tomoda, H.; Nishida, H.; Masuma, R.; Cao, J.; Okuda, S.; Omura, S. J. Antibiot. 1991, 44, 136-143), CETP (Tomoda, H.; Tabata, N.; Masuma, R.; Si, S.-Y.; Omura, S. J. Antibiot. 1998, 51, 618-623; D. H. Hua et al. Tetrahedron 2003, 59, 4795-4803), L1210 tumor cells (Perchellet, E. M.; Ladesich, J. B.; Magill, M. J.; Chen, Y.; Hua, D. H.; Perchellet, J. P. Anti-Cancer Drugs 1999, 10, 489-504), and APP C99-induced cell death (Jin, L.-W.; Hua, D. H.; Shie, F.-S.; Maezawa, I.; Sopher, B.; Martin, G. M. J. Mol. Neurosci. 2002, 19, 57-61) were followed.

The subject of data set [7] is PKC-γ. In words: galactose-fed rats: PKC-γ levels in lens and sciatic nerve (Western blot). In kind it is in vivo, Sprague Dawley Rats. To be noted: 100 mg/Kg body weight per day; for PKC-γ levels in sciatic nerve cells: high galactose feed, FIG. 3B. As for the experimental part: In order to test for in vivo effects of ARI's, rats were fed a 40% galactose diet for 9 days and the accumulation of galactitol was measured in lens tissue. This tissue has high aldose reductase activity and the eye has a separate vasculature. Thus, if the ARI works in the lens this is a good indication that the drug works and can penetrate to most tissues.
The specific experimental details follow. […] The rats were given food supplemented with inhibitor in the morning and then given food and water ad libitum the rest of the day. They were kept on a 12-hour on and 12-hour off light cycle. After 9 days, the rats were sacrificed with an overdose of CO2 and then eyes were taken and immediately frozen on dry ice for later polyol and PKC analyses. Experiments on all rats conformed to the ARVO resolution on the Use of Animals in Research.
The lenses were removed from the enucleated eyes and weighed. They were put in 200 μL lysis buffer (50 mM Tris, 100 mM NaCl, M-Per Pierre Zwitterionic detergent, 5 mM NaF, 1 mM Na3VO4, 40 mM β-glycerophosphate, 6 μg/mL chymotrypsin, 10 μM3,4-dichlorocoumarin, 10 μM E-64, 1 μg/mL leupeptin, 1 μg/mL pepstatin A, 1 μg/mL aprotinin, 1 mM PMSF, and 5 mM EDTA (Sigma). The lenses were then ground using a tissue grinder until they were a uniformly white solution. They were then sonicated to make certain all the cells were disrupted. The mixture was then centrifuged for 20 minutes at 0° C. at […]. The supernatant was then analyzed for protein content using […] (Pierce). Equal amounts of protein were loaded and separated on a 10% SDS polyacrylamide gel. The proteins were transferred to nitrocellulose (Midwest Scientific; pore size 0.45 μm). The western was blocked with a 3% milk solution, and then mouse anti-PKC γ (1:5000) or PKC α (1:1000) antisera (Transgenic Laboratories) were applied in a 3% milk solution overnight. […]
The effects of streptozotocin induced diabetes on PKC-γ levels in rat lens have been measured. […]
A general note: In western blotting, separated proteins are transferred to a membrane and probed.

Data set [8] deals with PKC-γ. As to the kind of experiment: canine study: PKC-γ level of dog lens (Western blot). It counts as in vivo, Beagle dogs. As for the experimental part:
(§1) A pilot study was conducted to determine initial toxicity and efficacy in a Beagle model. The study was conducted at the fully accredited facility at the Kansas State University Veterinary Clinic. The dogs were fed a 40% galactose diet for 6 weeks. These dogs developed cataracts. Compound 1 was administered orally at 100 mg/kg body weight/day for 6 weeks. At this dose, the polyol levels were 50% normalized (FIG. 4) and PKCγ levels were 80% normalized (FIG. 5). […] The PkC-γ levels of dogs treated with galactose is 30.8%, G+I is 84.1% and C+I is 79.7%. Additional testing at higher doses is planned to determine optimal dose for efficacy with no or low toxicity. These experiments are well within the skill and experience of one of ordinary skill in the art and can be performed without undue experimentation.

A short description of data set [9]: pathology studies in treated rats. It counts as in vivo. Particulars: 100 mg/Kg body weight per day, 9 days.
The nature of data set [10]: canine study: polyol level in dog lens (GC/MS). It counts as in vivo, Beagle dogs. As for the experimental part:
as §1

[11] abbreviates: dogs, 40% galactose diet 6 weeks, orally 100 mg/kg body weight/day for 6 weeks.
Where [12] appears, read: Galactosemic dogs, with inhibitor.

`O=C(O)C(O)Cc1cc2c(c(=O)o1)C(O)C1CCCCC1O2` (centres unmarked) [Compound 2, 2-Hydroxy-3-{1H,7H-5a,6,8,9,10,11-hexahydro-10-hydroxy-1-oxopyrano[4,3-b][1]benzopyran-3-yl}-propanoic acid]: the toxicity result in data set [1] is “no toxicity was found”. Moreover, the IC50 in [2] was 0.02 µM. The inhibition at 10 µM in data set [3] (48 hours) was < 10%. Further, in data set [4], the water solubility result is reported as “water soluble”.
Take `Cc1cc2c(c(=O)o1)C=C1CC[C@@H](CC(C)n3cnc4c(N)ncnc43)C[C@@H]1O2` (mixture of isomers) [Compound 105, (5aS,7S)-7-[(1R) and (1S)-2-(N-9-Adenyl)-1-methylethyl]-3-methyl-1H,7H-5a,6,8,9-tetrahydro-1-oxopyrano[4,3-b][1]benzopyran]: the “fold less active than 106 (EC50)” value in [5] (MC65 cells) is 20 fold. The compound also yielded an EC50 in data set [5] (MC65 cells in the absence of tetracycline) of 3 µM. For the same compound, the IC50 in data set [6] (read-out: IC50, cytotoxic to L1210 tumor cells) was 30 µM.
As for `CC(=O)OCC1(C)C(OC(C)=O)CCC2(C)C1CC(OC(C)=O)C1(C)Oc3cc(-c4cccnc4)oc(=O)c3C(O)C21` (centres unmarked) [Pyripyropene A, reference compound], in data set [6] (Mus musculus, L1210, Table 9, read-out: C50, L1210 Leukemic Cells), the IC50 was > 100 µM.
`COc1ccc2c(C(=S)N(C)CC(=O)O)cccc2c1C(F)(F)F` [Tolrestat, reference compound]: the “% galactitol” value in [3] (0.5 uM Tolrestat, 40 mM galactose, 48 hours) is on record as 100%; in data set [3] (1 uM Tolrestat, 40 mM galactose, 48 hours) it was 90%; in data set [3] (7 uM Tolrestat, 40 mM galactose, 48 hours), 53%. In data set [3], this compound showed an IC50 of 8 µM. Moreover, the inhibition at 10 µM in [3] (48 hours) came out at 95 ± 4%. Also, the water solubility entry in [4] is “insoluble in water”. Further, the “PKC-γ levels in lens epithelial cells” value in [7] (40% galactose feed 9 days, FIG. 2, FIG. 3A) is “remained near normal”. The “PKC-γ levels in sciatic nerve cells” value in data set [7] is listed as “normalized”.
Turning to `O=C(O)Cc1cc2c(c(=O)o1)C=C1CCCCC1O2` (centres unmarked) [Compound 1, {1H,7H-5a,6,8,9-Tetrahydro-1-oxopyrano[4,3-b][1]benzopyran-3-yl}acetic acid], the toxicity result in [1] is reported as “no toxicity was found”. For the same compound, the IC50 worked out at 0.002 µM in data set [2] and 6 µM in data set [3]. The “% galactitol” value in data set [3] (1 uM compound 1, 40 mM galactose, 48 hours) was determined as 80%; in data set [3] (10 uM compound 1, 40 mM galactose, 48 hours), 30%. In addition, the “concentration of galactitol relative to galactose (GC/MS, FIG. 1B)” value in data set [3] (10 uM, 40 mM galactose, 48 hours) was “decreases the concentration of galactitol relative to galactose”. Besides, the inhibition at 10 µM in data set [3] (48 hours) is 80 ± 10%. In addition, the “PKC-γ level of dog lens (read-out of intensities, FIG. 5)” value in data set [8] (control with inhibitor 1 (C+I)) is on record as 79.7%; in data set [8] (galactose and inhibitor 1 (G+I)), 84.1%. Moreover, the PKCγ levels normalized in [8] (setting [11]) is given as 80%. In addition, the “toxicity to the rats (pathology studies)” value in [9] is given as “not toxic to the rats”. Further, in data set [4], the water solubility result is “water soluble”. For the same compound, the “Galactitol (polyol) (GC/MS, dog lens)” value in data set [10] (setting [12]) is on record as 27.3%. For the same compound, in [10] (setting [12]), the “Galactose (GC/MS, dog lens)” value was 72.7%. In addition, the polyol levels normalized in data set [10] (setting [11]) worked out at 50%. In data set [7], the “PKC-γ levels in sciatic nerve cells” value was “normalized”.

In general, inhibition refers to the drop in the measured response relative to a control, in per cent. The EC50 is the concentration that produces a half-maximal response. A higher EC50 goes with a need for much substance.
